Data from US20240270741A1 (Cogent Biosciences, Inc., priority 2023, published 2024).

Each compound was assayed against FGFR2 (Homo sapiens, UniProt P21802) (assay: FGFR wild type enzyme assay (HTRF KinEASE-TK), FGFR2). Conditions: Enz FGFR2 (nM), FGFR2 wild type enzyme.
Chain of FGFR2 (P21802 399-821 limits assumed): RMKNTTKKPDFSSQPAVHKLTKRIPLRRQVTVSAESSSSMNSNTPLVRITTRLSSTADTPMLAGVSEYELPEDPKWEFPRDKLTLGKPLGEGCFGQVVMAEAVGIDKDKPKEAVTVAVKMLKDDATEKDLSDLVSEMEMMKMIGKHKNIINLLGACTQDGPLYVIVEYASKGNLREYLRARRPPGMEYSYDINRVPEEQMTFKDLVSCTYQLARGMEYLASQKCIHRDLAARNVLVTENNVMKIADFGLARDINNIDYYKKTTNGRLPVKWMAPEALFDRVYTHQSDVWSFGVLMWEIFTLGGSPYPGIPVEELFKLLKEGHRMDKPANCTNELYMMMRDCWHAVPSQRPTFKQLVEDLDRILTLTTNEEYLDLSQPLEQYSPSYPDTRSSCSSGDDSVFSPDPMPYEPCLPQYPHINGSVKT

Compound	IC50
Cc1c(-c2cc(Sc3ccccc3C#N)c3c(C#N)cnn3c2)cnn1[C@H]1CC[C@H](N(C)CCO)CC1 [Example 284, 4-((2-cyanophenyl)thio)-6-(1-((1r,4SR)-4-((2-hydroxyethyl)(methyl)ami-no)cyclohexyl)-5-methyl-1H-pyrazol-4-yl)pyrazolo[1,5-a]pyridine-3-carbonitrile]	0.4 nM
Cc1c(-c2cc(Sc3ccccc3C#N)c3c(C#N)cnn3c2)cnn1[C@H]1CC[C@@H](NS(C)(=O)=O)CC1 [Example 285, N-((1s,4s)-4-(4-(3-cyano-4-((2-cyanophenyl)thio)pyrazolo [1,5-a]pyridin-6-yl)-5-methyl-1H-pyrazol-1-y)cyclohexyl)methane-sulfonamide]	1 nM
Cc1c(-c2cc(Sc3ccccc3C#N)c3c(C#N)cnn3c2)cnn1C1CCN(Cc2ncccn2)CC1 [Example 286, 4-((2-cyanophenyl)thio)-6-(5-methyl-1-(1-(pyrimidin-2-ylmethyl)piperidin-4-yl)-1H-pyrazol-4-yl)pyrazolo[1,5-a]pyridine-3-carbonitrile]	1 nM
Cc1c(-c2cc(Sc3ccccc3C#N)c3c(C#N)cnn3c2)cnn1[C@H]1CC[C@@H](NCc2ccccn2)CC1 [Example 287, 4-((2-cyanophenyl)thio)-6-(5-methyl-1-((1s,4s)-4-((pyridin-2-ylmethyl)amino)cyclohex-yl)-1H-pyrazol-4-yl)pyrazolo[1,5-a]pyridine-3-carbonitrile]	0.4 nM
Cc1c(-c2cc(Sc3ccc(F)cc3C#N)c3c(C#N)cnn3c2)cnn1[C@H]1CC[C@@H](O)CC1 [Example 288, 4-((2-cyano-4-fluorophenyl)thio)-6-(1-((1s,4s)-4-hydroxycyclohexyl)-5-methyl-1H-pyrazol-4-yl)pyrazolo[1,5-a]pyridine-3-carbonitrile]	1 nM
Cc1c(-c2cc(Sc3ccc(F)cc3C#N)c3c(C#N)cnn3c2)cnn1[C@@H]1C[C@H]2CC[C@@H](C1)N2C [Example 289, 4-((2-cyano-4-fluorophenyl)thio)-6-(5-methyl-1-((1R,3s,5S)-8-methyl-8-azabicyclo[3.2.1]octan-3-yl)-1H-pyrazol-4-yl)pyrazolo[1,5-a]pyridine-3-carbonitrile]	0.5 nM
Cc1c(-c2cc(Sc3ccc(F)cn3)c3c(C#N)cnn3c2)cnn1[C@H]1CC[C@@H](O)CC1 [Example 290, 4-((5-fluoropyridin-2-yl)thio)-6-(1-((1s,4s)-4-hydroxycyclohexyl)-5-methyl-1H-pyrazol-4-yl)pyrazolo[1,5-a]pyridine-3-carbonitrile]	5 nM
Cc1c(-c2cc(Sc3ccc(F)cn3)c3c(C#N)cnn3c2)cnn1[C@H]1CC[C@@](C)(N)CC1 [Example 291, 6-(1-((1s,4s)-4-amino-4-methylcyclohexyl)-5-methyl-1H-pyrazol-4-yl)-4-((5-fluoropyridin-2-yl)thio)pyrazolo[1,5-a]pyridine-3-carbonitrile]	3 nM
CN[C@]1(C)CC[C@H](n2ncc(-c3cc(Sc4ccc(F)cn4)c4c(C#N)cnn4c3)c2C)CC1 [Example 292, 4-((5-fluoropyridin-2-yl)thio)-6-(5-methyl-1-((1s,4s)-4-methyl-4-(methylamino)cyclohexyl)-1H-pyrazol-4-yl)pyrazolo[1,5-a]pyridine-3-carbonitrile]	3 nM
N#Cc1cnn2cc(-c3cnn([C@H]4CC[C@@H](O)CC4)c3)cc(Sc3ncccc3F)c12 [Example 293, 4-((3-fluoropyridin-2-yl)thio)-6-(1-((1s,4s)-4-hydroxycyclohexyl)-1H-pyrazol-4-yl)pyrazolo[1,5-a]pyridine-3-carbonitrile]	1 nM
N#Cc1ccccc1Sc1cc(-c2cnn([C@H]3CC[C@@H](O)CC3)c2)cn2ncc(C#N)c12 [Example 294, 4-((2-cyanophenyl)thio)-6-(1-((1s,4s)-4-hydroxycyclohexyl)-1H-pyrazol-4-yl)pyrazolo[1,5-a]pyridine-3-carbonitrile]	0.5 nM
CN[C@]1(C)CC[C@H](n2ncc(-c3cc(Sc4ncccc4F)c4c(C#N)cnn4c3)c2C)CC1 [Example 295, 4-((3-fluoropyridin-2-yl)thio)-6-(5-methyl-1-((1s,4s)-4-methyl-4-(methylamino)cylcohexyl)-1H-pyrazol-4-yl)pyrazolo[1,5-a]pyridine-3-carbonitrile]	1 nM
Cc1c(-c2cc(Sc3ncccc3F)c3c(C#N)cnn3c2)cnn1[C@@H]1CC[C@H](O)[C@H](O)C1 [Example 296, 6-(1-((1R,3R,4S)-3,4-dihydroxycyclohexyl)-5-methyl-1H-pyrazol-4-yl)-4-((3-fluoropyridin-2-yl)thio)pyrazolo[1,5-a]pyridine-3-carbonitrile]	2 nM
Cc1c(-c2cc(Sc3ccccc3C#N)c3c(C#N)cnn3c2)cnn1[C@H]1CC[C@@](C)(N)CC1 [Example 297, 6-[1-(4-amino-4-methyl-cyclohexyl)-5-methyl-pyrazol-4-yl]-4-(2-cyanophenyl) sulfanylpyrazolo[1,5-a]pyridine-3-carbonitrile]	0.3 nM
CN(C)[C@H]1CC[C@@H](n2cc(-c3cc(Sc4ccccc4C#N)c4c(C#N)cnn4c3)cn2)CC1 [Example 298, 4-((2-cyanophenyl)thio)-6-(1-((1s,4s)-4-(dimethylamino)cyclohex-yl)-1H-pyrazol-4-yl)pyrazolo[1,5-a]pyridine-3-carbonitrile]	0.5 nM
CC(=O)N[C@H]1CC[C@@H](n2ncc(-c3cc(Sc4ccc(F)cc4C#N)c4c(C#N)cnn4c3)c2C)CC1 [Example 299, N-((1s,4S)-4-(4-(3-cyano-4-((2-cyano-4-fluorophenyl)thio)pyrazolo [1,5-a]pyridin-6-yl)-5-methyl-1H-pyrazol-1-yl)cyclohexyl)acetamide]	1 nM
Cc1c(-c2cc(Sc3ccc(F)cc3C#N)c3c(C#N)cnn3c2)cnn1[C@H]1C[C@H]2CC[C@@H](C1)N2C [Example 300, 4-((2-cyano-4-fluorophenyl)thio)-6-(5-methyl-1-((1R,3r,5S)-8-methyl-8-azabicyclo[3.2.1]octan-3-yl)-1H-pyrazol-4-yl)pyazolo[1,5-a]pyridine-3-carbonitrile]	1 nM
Cc1c(-c2cc(Sc3ccc(F)cc3C#N)c3c(C#N)cnn3c2)cnn1[C@H]1CC[C@H](NC(=O)CO)CC1 [Example 301, N-((1r,4r)-4-(4-(3-cyano-4-((2-cyano-4-fluorophenyl)thio)pyrazolo [1,5-a]pyridin-6-yl)-5-methyl-1H-pyrazol-1-yl)cyclohexyl)-2-hydroxyacetamide]	1 nM
Cc1c(-c2cc(Sc3ccccn3)c3c(C#N)cnn3c2)cnn1[C@H]1CC[C@@H](O)CC1 [Example 302]	4 nM
Cc1nn(C2CCN(C)CC2)c(C)c1-c1cc(Sc2ncccc2F)c2c(C#N)cnn2c1 [Example 303, 6-(3,5-dimethyl-1-(1-methylpiperidin-4-yl)-1H-pyrazol-4-yl)-4-((3-fluoropyridin-2-yl)thio)pyrazolo[1,5-a]pyridine-3-carbontirile]	6 nM
Cc1nn([C@H]2CC[C@@H](N(C)C)CC2)c(C)c1-c1cc(Sc2ncccc2F)c2c(C#N)cnn2c1 [Example 304, 6-(1-((1s,4s)-4-(dimethylamino)cyclohex-yl)-3,5-dimethyl-1H-pyrazol-4-yl)-4-((3-fluoropyridin-2-yl)thio)pyrazolo[1,5-a]pryidine-3-carbonitrile]	3.5 nM
Cc1nn(C2CCN(C)CC2)c(C)c1-c1cc(Sc2ccccc2C#N)c2c(C#N)cnn2c1 [Example 305, 4-((2-cyanophenyl)thio)-6-(3,5-dimethyl-1-(1-methylpiperidin-4-yl)-1H-pyrazol-4-yl)pyrazolo[1,5-a]pyridine-3-carbonitrile]	5 nM
CC(=O)N1CCC(n2ncc(-c3cc(Sc4ccc(F)cn4)c4c(C#N)cnn4c3)c2C)CC1 [Example 306, 6-(1-(1-acetylpiperidin-4-yl)-5-methyl-1H-pyrazol-4-yl)-4-((5-fluoropyridin-2-yl)thio)pyrazolo[1,5-a]pyridine-3-carbonitrile]	6 nM
Cc1c(-c2cc(Sc3ccc(F)cn3)c3c(C#N)cnn3c2)cnn1[C@H]1CCCNC1 [Example 307, (S)-4-((5-fluoropyridin-2-yl)thio)-6-(5-methyl-1-(piperidin-3-yl)-1H-pyrazol-4-yl)pyrazolo[1,5-a]pyridine-3-carbonitrile]	5 nM
CC(=O)N1CCC[C@H](n2ncc(-c3cc(Sc4ccc(F)cn4)c4c(C#N)cnn4c3)c2C)C1 [Example 308, (S)-6-(1-(1-acetylpiperidin-3-yl)-5-methyl-1H-pyrazol-4-yl)-4-((5-fluoropyridin-2-yl)thio)pyrazolo[1,5-a]pyridine-3-carbonitrile]	7 nM
Cc1c(-c2cc(Sc3ccc(F)cn3)c3c(C#N)cnn3c2)cnn1[C@H]1C[C@H]2CC[C@@H](C1)N2C(=O)CO [Example 309, 4-((5-fluoropyridin-2-yl)thio)-6-(1-((1R,3r,5S)-8-(2-hydroxyacetyl)-8-azabicyclo[3.2.1]octan-3-yl)-5-methyl-1H-pyrazol-4-yl)pyrazolo[1,5-a]pyridine-3-carbonitrile]	6 nM
Cc1c(-c2cc(Sc3ccc(F)cn3)c3c(C#N)cnn3c2)cnn1[C@@H]1C[C@H]2CC[C@@H](C1)N2C(=O)CO [Example 310, 4-((5-fluoropyridin-2-y)thio)-6-(1-((1R,3s,5S)-8-(2-hydroxyacetyl)-8-azabicyclo[3.2.1]octan-3-yl)-5-methyl-1H-pyrazol-4-yl)pyrazolo[1,5-a]pyridine-3-carobnitrile]	8 nM
CN[C@H]1CC[C@@H](n2ncc(-c3cc(Sc4ccccn4)c4c(C#N)cnn4c3)c2C)CC1 [Example 311, 6-(5-methyl-1-((1s,4s)-4-(methylamino)cyclohexyl)-1H-pyrazol-4-yl)-4-(pyridin-2-ylthio)pyrazolo[1,5-a]pyridine-3-carbonitrile]	2 nM
Cc1nn([C@H]2CC[C@@H](O)CC2)cc1-c1cc(Sc2ncccc2F)c2c(C#N)cnn2c1 [Example 312, 4-((3-fluoropyridin-2-yl)thio)-6-(1-((1s,4s)-4-hydroxycyclohexyl)-3-methyl-1H-pyrazol-4-yl)pyrazolo[1,5-a]pyridine-3-carbonitrile]	1.5 nM
